Laboratory results taken from patent US11718611B2, “Benzenesulfonylbenazamide compound for inhibiting BCL-2 protein and composition and use thereof” (Shenzhen TargetRx, Inc., priority 2017, dated 2023).

Experiments:
[1] = Liver microsomal metabolism experiment (metabolic stability); type: in vitro ADME; conditions: pH 7.4; mouse liver microsomes 0.5 mg/mL, compound 1 μM
Description: Microsome assay: mouse liver microsomes: 0.5 mg/mL, Xenotech; coenzyme (NADPH/NADH): 1 mM, Sigma Life Science; magnesium chloride: 5 mM, 100 mM phosphate buffer (pH 7.4).
Preparation of stock solutions: Powder of the compounds were accurately weighed and dissolved in DMSO to 5 mM.
Preparation of phosphate buffer (100 mM, pH7.4): A pre-prepared 0.5M potassium dihydrogen phosphate (150 mL) was mixed with 0.5M dibasic potassium phosphate (700 mL). The pH of the mixture was adjusted to 7.4 with 0.5M dibasic potassium phosphate solution. The mixture was diluted 5-fold with ultrapure water before use, and magnesium chloride was added to obtain a phosphate buffer (100 mM) containing 100 mM potassium phosphate, 3.3 mM magnesium chloride, pH 7.4.
A NADPH regeneration system solution (containing 6.5 mM NADP, 16.5 mM G-6-P, 3 U/mL G-6-P D, 3.3 mM magnesium chloride) was prepared and placed on wet ice prior to use.
Preparation of stop solution: an acetonitrile solution containing 50 ng/mL propranolol hydrochloride and 200 ng/mL tolbutamide (internal standard). 25057.5 μL of phosphate buffer (pH 7.4) was taken into a 50 mL centrifuge tube, to which 812.5 μL mouse liver microsomes were added, and mixed to obtain a liver microsome dilution with a protein concentration of 0.625 mg/mL.
Incubation of the samples: The stock solutions of the respective compounds were respectively diluted to 0.25 mM with an aqueous solution containing 70% acetonitrile, and used as a working solution, ready for use. 398 μL of the dilution of human liver microsomes or rat mouse liver microsomes were added to 96-well incubation plates (N=2), respectively, and 2 μL of 0.25 mM working solution was added and mixed.
Metabolic stability assay: 300 μL of pre-chilled stop solution was added to each well of 96-well deep well plates and placed on ice as stop plates. The 96-well incubation plates and NADPH regeneration system were placed in a 37° C. water bath box, shaken at 100 rpm and pre-incubated for 5 min. 80 μL of incubation solution was taken out from each well of the incubation plates and added to the stop plates, mixed, and replenished with 20 μL of NADPH regeneration system solution as a 0-min sample. 80 μL of NADPH regeneration system solution was added to each well of the incubation plates to start the reaction and start counting. […] Separately, 100 μL of the reaction solutions was taken at 10, 30, and 90 min reaction, respectively, added to stop plates, and vortexed for 3 minutes to terminate the reaction. The stop plates were centrifuged at 5000×g at 4° C. for 10 min. 100 μL of the supernatant was added to a 96-well plate to which 100 μL of distilled water was previously added, mixed, and analyzed by LC-MS/MS.
Data analysis: The peak areas of the corresponding compounds and internal standard were detected by LC-MS/MS system, and the ratio of the peak area of the compounds to the internal standard was calculated.

[2] = Pharmacokinetic experiment in rats; type: in vivo, SD rat; conditions: male SD rats, i.g., 3 mg/kg; for AUC(0-t) / Cmax / MRT / Tmax: rat, plasma, po
Description: Experimental Objective: To investigate the pharmacokinetic behavior of the compounds of the present disclosure after the rats being administered with the test compounds.
Species and strain: SD rat grade: SPF grade
Gender and quantity: male, 6
Experimental procedures: Before blood samples were collected, 20 μL of 2 M sodium fluoride solution (esterase inhibitor) was previously added to an EDTA-K2 anticoagulant tube, dried in an 80° C. oven, and placed in a 4° C. refrigerator.
Rats (male, weighing 187 to 197 g) were randomly divided into 2 groups, and were fasted overnight in the afternoon before the experiment but were allowed to drink water freely. Food was given 4 hours after the administration. Group A was given Venetoclaxr (3 mg/kg), and group B was given example compounds 1 to 7 (3 mg/kg). About 100-200 μL of blood was taken from the orbital vein of rats at 15 min, 30 min, 1, 2, 3, 5, 8 and 10 h after administration, placed in a 0.5 mL Eppendorf tube with EDTA-K2 anticoagulant and mixed immediately. After anticoagulation, the tube was gently inverted 5-6 times as quickly as possible. After the blood was taken, it was placed in an ice box, and then within 30 min, the blood sample was centrifuged for 10 min at 4000 rpm and 4° C. to separate the plasma. Immediately after collection of all plasma, it was stored at −20° C. The concentration of the drug in plasma at each time point was determined after sample collection at all time points.

Row | half-life at 1 μM [1] | microsomal CLint at 1 μM [1] | Cl—pred [2] | F [2] | AUC(0-t) [2] | Cmax [2] | MRT [2] | Tmax [2] | SMILES
1 | 4.07 h | 5.7 µL/min/mg | – | – | – | – | – | – | [2H]C([2H])(C1=C(c2ccc(Cl)cc2)CC(C)(C)CC1)N1CCN(c2ccc(C(=O)NS(=O)(=O)c3ccc(NCC4CCOCC4)c([N+](=O)[O-])c3)c(Oc3cnc4[nH]ccc4c3)c2)CC1 (single isomer, unassigned) [Compound T-1, 4-(4-{[2-(4-chlorophenyl)-4,4-dimethylcyclohex-1-en-1-yl]methyl-d2}piperazin-1-yl)-N-({3-nitro-4-[(tetrahydro-2H-pyran-4-ylmethyl)amino]phenyl}sulfonyl)-2-(1H-pyrrolo[2,3-b]pyridin-5-yloxy)benzamide]
2 | 2.38 h | 9.7 µL/min/mg | – | – | – | – | – | – | [2H]C([2H])(Nc1ccc(S(=O)(=O)NC(=O)c2ccc(N3CCN(C([2H])([2H])C4=C(c5ccc(Cl)cc5)CC(C)(C)CC4)CC3)cc2Oc2cnc3[nH]ccc3c2)cc1[N+](=O)[O-])C1CCOCC1 (single isomer, unassigned) [Compound T-2, 4-(4-{[2-(4-chlorophenyl)-4,4-dimethylcyclohex-1-en-1-yl]methyl-d2}piperazin-1-yl)-N-({3-nitro-4-[(tetrahydro-2H-pyran-4-ylmethyl-d2)amino]phenyl}sulfonyl)-2-(1H-pyrrolo[2,3-b]pyridin-5-yloxy)benzamide]
3 | 1.25 h | 18.4 µL/min/mg | 40.2 mL/min/kg | 7.10% | 4430 ng·h/mL | 680 ng/mL | 5.07 h | 3.33 h | [2H]C([2H])(Nc1ccc(S(=O)(=O)NC(=O)c2ccc(N3CCN(CC4=C(c5ccc(Cl)cc5)CC(C)(C)CC4)CC3)cc2Oc2cnc3[nH]ccc3c2)cc1[N+](=O)[O-])C1CCOCC1 (single isomer, unassigned) [Compound T-3, 4-(4-{[2-(4-chlorophenyl)-4,4-dimethylcyclohex-1-en-1-yl]methyl}piperazin-1-yl)-N-({3-nitro-4-[(tetrahydro-2H-pyran-4-ylmethyl-d2)amino]phenyl}sulfonyl)-2-(1H-pyrrolo[2,3-b]pyridin-5-yloxy)benzamide]
4 | 1.12 h | 20.7 µL/min/mg | – | – | – | – | – | – | [2H]C([2H])(C1=C(c2ccc(Cl)cc2)CC(C)(C)CC1)N1C([2H])([2H])C([2H])([2H])N(c2ccc(C(=O)NS(=O)(=O)c3ccc(NCC4CCOCC4)c([N+](=O)[O-])c3)c(Oc3cnc4[nH]ccc4c3)c2)C([2H])([2H])C1([2H])[2H] (single isomer, unassigned) [Compound T-4, 4-(4-{[2-(4-chlorophenyl)-4,4-dimethylcyclohex-1-en-1-yl]-methyl-d2}piperazin-1-yl-2,2,3,3,5,5,6,6-d8)-N-({3-nitro-4-[(tetrahydro-2H-pyran-4-ylmethyl)amino]phenyl}sulfonyl)-2-(1H-pyrrolo[2,3-b]pyridin-5-yloxy)benzamide]
5 | 1.52 h | 15.2 µL/min/mg | – | – | – | – | – | – | [2H]C1([2H])N(CC2=C(c3ccc(Cl)cc3)CC(C)(C)CC2)C([2H])([2H])C([2H])([2H])N(c2ccc(C(=O)NS(=O)(=O)c3ccc(NCC4CCOCC4)c([N+](=O)[O-])c3)c(Oc3cnc4[nH]ccc4c3)c2)C1([2H])[2H] (single isomer, unassigned) [Compound T-5, 4-(4-{[2-(4-chlorophenyl)-4,4-dimethylcyclohex-1-en-1-yl]methyl}piperazin-1-yl-2,2,3,3,5,5,6,6-d8)-N-({3-nitro-4-[(tetrahydro-2H-pyran-4-ylmethyl)amino]phenyl}sulfonyl)-2-(1H-pyrrolo[2,3-b]pyridin-5-yloxy)benzamide]
6 | 1.3 h | 17.8 µL/min/mg | – | – | – | – | – | – | [2H]C([2H])(Nc1ccc(S(=O)(=O)NC(=O)c2ccc(N3C([2H])([2H])C([2H])([2H])N(CC4=C(c5ccc(Cl)cc5)CC(C)(C)CC4)C([2H])([2H])C3([2H])[2H])cc2Oc2cnc3[nH]ccc3c2)cc1[N+](=O)[O-])C1CCOCC1 (single isomer, unassigned) [Compound T-6, 4-(4-{[2-(4-chlorophenyl)-4,4-dimethylcyclohex-1-en-1-yl]methyl}piperazin-1-yl-2,2,3,3,5,5,6,6-d8)-N-({3-nitro-4-[(tetrahydro-2H-pyran-4-ylmethyl-d2)amino]phenyl}sulfonyl)-2-(1H-pyrrolo[2,3-b]pyridin-5-yloxy)benzamide]
7 | 5.11 h | 4.5 µL/min/mg | – | – | – | – | – | – | [2H]C([2H])(Nc1ccc(S(=O)(=O)NC(=O)c2ccc(N3C([2H])([2H])C([2H])([2H])N(C([2H])([2H])C4=C(c5ccc(Cl)cc5)CC(C)(C)CC4)C([2H])([2H])C3([2H])[2H])cc2Oc2cnc3[nH]ccc3c2)cc1[N+](=O)[O-])C1CCOCC1 (single isomer, unassigned) [Compound T-7, 4-(4-{[2-(4-chlorophenyl)-4,4-dimethylcyclohex-1-en-1-yl]methyl-d2}piperazin-1-yl-2,2,3,3,5,5,6,6-d8)-N-({3-nitro-4-[(tetrahydro-2H-pyran-4-ylmethyl-d2)amino]phenyl}sulfonyl)-2-(1H-pyrrolo[2,3-b]pyridin-5-yloxy)benzamide]
8 | 1.35 h | 17.1 µL/min/mg | 54.7 mL/min/kg | 3.47% | 3060 ng·h/mL | 478 ng/mL | 5.22 h | 3.33 h | CC1(C)CCC(CN2CCN(c3ccc(C(=O)NS(=O)(=O)c4ccc(NCC5CCOCC5)c([N+](=O)[O-])c4)c(Oc4cnc5[nH]ccc5c4)c3)CC2)=C(c2ccc(Cl)cc2)C1 [Venetoclax, 4-(4-{[2-(4-chlorophenyl)-4,4-dimethylcyclohex-1-en-1-yl]methyl}piperazin-1-yl)-N-({3-nitro-4-[(tetrahydro-2H-pyran-4-ylmethyl)amino]phenyl}sulfonyl)-2-(1H-pyrrolo[2,3-b]pyridin-5-yloxy)benzamide, reference compound]
